Target: T1, MLLT1 (Homo sapiens, UniProt Q03111)
T1 construct: endogenous in cells; host or cells: MV4-11 (ATCC CRL-9591)
T1 sequence (Q03111 1-559): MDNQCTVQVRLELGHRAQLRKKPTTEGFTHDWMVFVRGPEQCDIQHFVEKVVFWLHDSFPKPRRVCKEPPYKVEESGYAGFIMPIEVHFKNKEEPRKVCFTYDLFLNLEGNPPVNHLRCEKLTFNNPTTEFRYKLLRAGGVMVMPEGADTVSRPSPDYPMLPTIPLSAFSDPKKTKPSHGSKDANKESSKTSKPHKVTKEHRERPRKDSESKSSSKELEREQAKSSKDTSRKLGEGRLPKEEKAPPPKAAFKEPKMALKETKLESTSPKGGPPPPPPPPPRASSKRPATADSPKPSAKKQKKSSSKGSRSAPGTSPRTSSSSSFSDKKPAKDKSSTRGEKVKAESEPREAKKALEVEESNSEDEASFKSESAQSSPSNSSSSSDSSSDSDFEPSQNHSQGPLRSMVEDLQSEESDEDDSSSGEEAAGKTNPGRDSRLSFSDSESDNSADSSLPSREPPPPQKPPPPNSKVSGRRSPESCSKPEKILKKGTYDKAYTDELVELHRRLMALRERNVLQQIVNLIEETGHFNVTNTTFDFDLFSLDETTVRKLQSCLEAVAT
Experiment: MLLT1 degradation assay (JESS automated chemiluminescent detection) in MV4-11 cells
Assay type: cell-based
Details: 24h, with respect to DMSO control
Description: MLLT1 degradation efficacy of compounds was tested in an automated chemiluminescent detection system (JESS, Cat# 004-650). MV4-11 (#CRL-9591, ATCC) cells were seeded at a density of 1.2 million cells/well in a non-treated 6-well cell culture plate in 2.4 mL of complete medium (IMDM + 10% FBS + 1X Penicillin-Streptomycin). 10 mM DMSO stocks were prepared, and cells were treated with three concentrations of test compounds viz. 1000, 100 and 10 nM at a final DMSO concentration of 0.1% and incubated for 24h at 37°C, 5% CO2. Post incubation, cells were centrifuged, washed with HBSS and lysed in 70 uL of RIPA buffer supplemented with Protease inhibitors (sc-24948; Santa Cruz). Subsequently, protein estimation was done using BCA protein assay kit (23225; Pierce). 4 ug protein lysate (4 uL of 1ug/uL lysate) was loaded into each well of the JESS cartridge (SM-WO01; Bio-techne) and the JESS run was performed using 1:900 dilution of anti-human MLLT1 antibody (14893; Cell signaling technology) and 1:1200 dilution of anti-human GAPDH antibody (2118; Cell signaling technology) with anti-rabbit secondary detection module (DM-001; Bio-Techne). Post run, data were analysed using "Compass for SW" software for chemiluminescent detection. The peak area for each band was used for the calculation of MLLT1 degradation with respect to DMSO control. Data is shown as "MLLT1 % degradation". Category A: A ≥ 75% degradation Category B: 50% ≤ B < 75% degradation Category C: 25% ≤ C < 50% degradation Category D: D < 25% degradation Table 1

SMILES | inhibition at 0.01 µM | inhibition at 0.1 µM | inhibition at 1 µM
Cc1nn(CCCCCN2CCN(c3cccc4c3C(=O)N(C3CCC(=O)NC3=O)C4=O)CC2)c2cc(C(=O)Nc3cc4[nH]c([C@H]5CCCN5C)cc4cn3)ccc12 (stereo partly drawn) [Example 47, 1-(5-(4-(2-(2,6-dioxopiperidin-3-yl)-1,3-dioxoisoindolin-4-yl)piperazin-1-yl)pentyl)-3-methyl-N-(2-((R)-1-methylpyrrolidin-2-yl)-1H-pyrrolo[3,2-c]pyridin-6-yl)-1H-indazole-6-carboxamide] | < 25% | < 25% | 50 to 75%
Cc1nn(CCCCCCCC#Cc2cccc(C3CCC(=O)NC3=O)c2F)c2cc(C(=O)Nc3cc4[nH]c([C@H]5CCCN5C)cc4cn3)ccc12 (stereo partly drawn) [Example 61, 1-(9-(3-(2,6-dioxopiperidin-3-yl)-2-fluorophenyl)non-8-yn-1-yl)-3-methyl-N-(2-((R)-1-methylpyrrolidin-2-yl)-1H-pyrrolo [3,2-c]pyridin-6-yl)-1H-indazole-6-carboxamide] | 25 to 50% | ≥ 75% | ≥ 75%
Cc1nn(CCCCCC#Cc2cccc(C(=O)NC3CCC(=O)NC3=O)c2F)c2cc(C(=O)Nc3cc4[nH]c([C@H]5CCCN5C)cc4cn3)ccc12 (stereo partly drawn) [Example 34, 1-(7-(3-((2,6-dioxopiperidin-3-yl)carbamoyl)-2-fluorophenyl)hept-6-yn-1-yl)-3-methyl-N-(2-((R)-1-methylpyrrolidin-2-yl)-1H-pyrrolo[3,2-c]pyridin-6-yl)-1H-indazole-6-carboxamide] | < 25% | 50 to 75% | ≥ 75%
Cc1nn(CCCCCCCC#Cc2ccc(F)c3c2CN(C2CCC(=O)NC2=O)C3=O)c2cc(C(=O)Nc3cc4[nH]c([C@H]5CCCN5C)c(Cl)c4cn3)ccc12 (stereo partly drawn) [Example 67, N-(3-chloro-2-((R)-1-methylpyrrolidin-2-yl)-1H-pyrrolo[3,2-c]pyridin-6-yl)-1-(9-(2-(2,6-dioxopiperidin-3-yl)-7-fluoro-1-oxoisoindolin-4-yl)non-8-yn-1-yl)-3-methyl-1H indazole-6-carboxamide] | ≥ 75% | ≥ 75% | ≥ 75%
Cc1nn(CCCCCCCC#Cc2cccc3c2CN(C2CCC(=O)NC2=O)C3=O)c2cc(C(=O)Nc3cc4[nH]c([C@H]5CCCN5C)cc4cn3)c(F)cc12 (stereo partly drawn) [Example 58, 1-(9-(2-(2,6-dioxopiperidin-3-yl)-1-oxoisoindolin-4-yl)non-8-yn-1-yl)-5-fluoro-3-methyl-N-(2-((R)-1-methylpyrrolidin-2-yl)-1H-pyrrolo[3,2-c]pyridin-6-yl)-1H-indazole-6-carboxamide] | ≥ 75% | ≥ 75% | ≥ 75%
Cc1nn(CC#Cc2cccc3c2CN(C2CCC(=O)NC2=O)C3=O)c2cc(C(=O)Nc3cc4[nH]c([C@H]5CCCN5C)cc4cn3)ccc12 (stereo partly drawn) [Example 72, 1-(3-(2-(2,6-dioxopiperidin-3-yl)-1-oxoisoindolin-4-yl)prop-2-yn-1-yl)-3-methyl-N (2-((R)-1-methylpyrrolidin-2-yl)-1H pyrrolo[3,2-c]pyridin-6-yl)-1H-indazole-6-carboxamide] | ≥ 75% | ≥ 75% | 50 to 75%
Cc1c2ccc(C(=O)Nc3cc4[nH]c([C@H]5CCCN5C)cc4cn3)cc2nn1CCCCCCCCNc1cccc2c1C(=O)N(C1CCC(=O)NC1=O)C2=O (stereo partly drawn) [Example 5, 2-(8-((2-(2,6-dioxopiperidin-3-yl)-1,3-dioxoisoindolin-4-yl)amino)octyl)-3-methyl-N-(2-((R)-1-methylpyrrolidin-2-yl)-1H-pyrrolo[3,2-c]pyridin-6-yl)-2H-indazole-6-carboxamide] | 50 to 75% | 50 to 75% | 25 to 50%
Cc1nn(CCCCCCCC#Cc2cc3c(cc2F)C(=O)N(C2CCC(=O)NC2=O)C3)c2cc(C(=O)Nc3cc4[nH]c([C@H]5CCCN5C)cc4cn3)ccc12 (stereo partly drawn) [Example 60, 1-(9-(2-(2,6-dioxopiperidin-3-yl)-6-fluoro-1-oxoisoindolin-5-yl)non-8-yn-1-yl)-3-methyl-N-(2-((R)-1-methylpyrrolidin-2-yl)-1H-pyrrolo[3,2-c]pyridin-6-yl)-1H-indazole-6-carboxamide] | 25 to 50% | 50 to 75% | ≥ 75%
Cc1nn(C2CCN(CC3CCN(c4cccc5c4C(=O)N(C4CCC(=O)NC4=O)C5=O)CC3)CC2)c2cc(C(=O)Nc3cc4[nH]c([C@H]5CCCN5C)cc4cn3)ccc12 (stereo partly drawn) [Example 71, 1-(1-((1-(2-(2,6-dioxopiperidin-3-yl)-1,3-dioxoisoindolin-4-yl)piperidin-4-yl)methyl)piperidin-4-yl)-3-methyl-N-(2-((R)-1-methylpyrrolidin-2-yl)-1H-pyrrolo[3,2-c]pyridin-6-yl)-1H-indazole-6-carboxamide] | 50 to 75% | ≥ 75% | ≥ 75%
CN1CCC[C@@H]1c1cc2cnc(NC(=O)c3ccc4c(cnn4CCCCCCCC#Cc4cccc5c4CN(C4CCC(=O)NC4=O)C5=O)c3)cc2[nH]1 (stereo partly drawn) [Example 38, 1-(9-(2-(2,6-dioxopiperidin-3-yl)-1-oxoisoindolin-4-yl)non-8-yn-1-yl)-N-(2-((R)-1-methylpyrrolidin-2-yl)-1H-pyrrolo[3,2-c]pyridin-6-yl)-1H-indazole-5-carboxamide] | 50 to 75% | ≥ 75% | 50 to 75%
Cc1nn(CCCC2CCN(c3ccc(C(=O)NC4CCC(=O)NC4=O)cc3F)CC2)c2cc(C(=O)Nc3cc4[nH]c([C@H]5CCCN5C)cc4cn3)ccc12 (stereo partly drawn) [Example 28, 1-(3-(1-(4-((2,6-dioxopiperidin-3-yl)carbamoyl)-2-fluorophenyl)piperidin-4-yl)propyl)-3-methyl-N-(2-((R)-1-methylpyrrolidin-2-yl)-1H-pyrrolo[3,2-c]pyridin-6-yl)-1H-indazole-6-carboxamide] | – | 25 to 50% | 25 to 50%
Cc1nn(CCCCCCCC#Cc2cccc(N3CCC(=O)NC3=O)c2F)c2cc(C(=O)Nc3cc4[nH]c([C@H]5CCCN5C)cc4cn3)ccc12 [Example 63, (R)-1-(9-(3-(2,4-dioxotetrahydropyrimidin-1(2H)-yl)-2-fluorophenyl)non-8-yn-1-yl)-3-methyl-N-(2-(1-methylpyrrolidin-2-yl)-1H-pyrrolo [3,2-c]pyridin-6-yl)-1H-indazole-6-carboxamide] | < 25% | 50 to 75% | ≥ 75%
Cc1nn(CCCOCC#Cc2cccc3c2CN(C2CCC(=O)NC2=O)C3=O)c2cc(C(=O)Nc3cc4[nH]c([C@H]5CCCN5C)cc4cn3)ccc12 (stereo partly drawn) [Example 31, 1-(3-((3-(2-(2,6-dioxopiperidin-3-yl)-1-oxoisoindolin-4-yl)prop-2-yn-1-yl)oxy)propyl)-3-methyl-N-(2-((R)-1-methylpyrrolidin-2-yl)-1H-pyrrolo[3,2-c]pyridin-6-yl)-1H-indazole-6-carboxamide] | 25 to 50% | 50 to 75% | ≥ 75%
Cc1nn(CCCCCCCC#Cc2cc3c(cc2F)c(N2CCC(=O)NC2=O)nn3C)c2cc(C(=O)Nc3cc4[nH]c([C@H]5CCCN5C)cc4cn3)ccc12 [Example 65, (R)-1-(9-(3-(2,4-dioxotetrahydropyrimidin-1(2H)-yl)-5-fluoro-1-methyl-1H-indazol-6-yl)non-8-yn-1-yl)-3-methyl-N-(2-(1-methylpyrrolidin-2-yl)-1H-pyrrolo[3,2-c]pyridin-6-yl)-1H-indazole-6-carboxamide] | 25 to 50% | 50 to 75% | ≥ 75%
Cc1nn(CCCCCCCC=C(Cl)c2ccc3c(c2)n(C)c(=O)n3C2CCC(=O)NC2=O)c2cc(C(=O)Nc3cc4[nH]c([C@H]5CCCN5C)cc4cn3)ccc12 (mixture of isomers) [Example 40] | ≥ 75% | ≥ 75% | ≥ 75%

Reference: patent EP4667466A1, “PROTAC DEGRADERS OF MLLT1 AND/OR MLLT3” (priority 2024, dated 2025)
